Experimental data taken from patent US10077261B2, “Imidazolin-5-one derivative useful as FASN inhibitors for the treatment of cancer” (Janssen Pharmaceutica NV, priority 2012, dated 2018).

Experiments:
[1] = molecular target: T1, hFASN enzyme (full length) (Homo sapiens, UniProt P49327); assay: Fatty Acid Synthase (FASN) inhibition scintillation proximity assay; type: biochemical; conditions: for inhibition at 10 µM: read-out: Human FASN % inhibition @ 10 μM, 10 μM test compound; for IC50: read-out: Human FASN pIC50 (converted)
T1 construct: 10 μL hFASN enzyme (full length, 300 ng, purified in house); made in house
T1 sequence (P49327 whole entry): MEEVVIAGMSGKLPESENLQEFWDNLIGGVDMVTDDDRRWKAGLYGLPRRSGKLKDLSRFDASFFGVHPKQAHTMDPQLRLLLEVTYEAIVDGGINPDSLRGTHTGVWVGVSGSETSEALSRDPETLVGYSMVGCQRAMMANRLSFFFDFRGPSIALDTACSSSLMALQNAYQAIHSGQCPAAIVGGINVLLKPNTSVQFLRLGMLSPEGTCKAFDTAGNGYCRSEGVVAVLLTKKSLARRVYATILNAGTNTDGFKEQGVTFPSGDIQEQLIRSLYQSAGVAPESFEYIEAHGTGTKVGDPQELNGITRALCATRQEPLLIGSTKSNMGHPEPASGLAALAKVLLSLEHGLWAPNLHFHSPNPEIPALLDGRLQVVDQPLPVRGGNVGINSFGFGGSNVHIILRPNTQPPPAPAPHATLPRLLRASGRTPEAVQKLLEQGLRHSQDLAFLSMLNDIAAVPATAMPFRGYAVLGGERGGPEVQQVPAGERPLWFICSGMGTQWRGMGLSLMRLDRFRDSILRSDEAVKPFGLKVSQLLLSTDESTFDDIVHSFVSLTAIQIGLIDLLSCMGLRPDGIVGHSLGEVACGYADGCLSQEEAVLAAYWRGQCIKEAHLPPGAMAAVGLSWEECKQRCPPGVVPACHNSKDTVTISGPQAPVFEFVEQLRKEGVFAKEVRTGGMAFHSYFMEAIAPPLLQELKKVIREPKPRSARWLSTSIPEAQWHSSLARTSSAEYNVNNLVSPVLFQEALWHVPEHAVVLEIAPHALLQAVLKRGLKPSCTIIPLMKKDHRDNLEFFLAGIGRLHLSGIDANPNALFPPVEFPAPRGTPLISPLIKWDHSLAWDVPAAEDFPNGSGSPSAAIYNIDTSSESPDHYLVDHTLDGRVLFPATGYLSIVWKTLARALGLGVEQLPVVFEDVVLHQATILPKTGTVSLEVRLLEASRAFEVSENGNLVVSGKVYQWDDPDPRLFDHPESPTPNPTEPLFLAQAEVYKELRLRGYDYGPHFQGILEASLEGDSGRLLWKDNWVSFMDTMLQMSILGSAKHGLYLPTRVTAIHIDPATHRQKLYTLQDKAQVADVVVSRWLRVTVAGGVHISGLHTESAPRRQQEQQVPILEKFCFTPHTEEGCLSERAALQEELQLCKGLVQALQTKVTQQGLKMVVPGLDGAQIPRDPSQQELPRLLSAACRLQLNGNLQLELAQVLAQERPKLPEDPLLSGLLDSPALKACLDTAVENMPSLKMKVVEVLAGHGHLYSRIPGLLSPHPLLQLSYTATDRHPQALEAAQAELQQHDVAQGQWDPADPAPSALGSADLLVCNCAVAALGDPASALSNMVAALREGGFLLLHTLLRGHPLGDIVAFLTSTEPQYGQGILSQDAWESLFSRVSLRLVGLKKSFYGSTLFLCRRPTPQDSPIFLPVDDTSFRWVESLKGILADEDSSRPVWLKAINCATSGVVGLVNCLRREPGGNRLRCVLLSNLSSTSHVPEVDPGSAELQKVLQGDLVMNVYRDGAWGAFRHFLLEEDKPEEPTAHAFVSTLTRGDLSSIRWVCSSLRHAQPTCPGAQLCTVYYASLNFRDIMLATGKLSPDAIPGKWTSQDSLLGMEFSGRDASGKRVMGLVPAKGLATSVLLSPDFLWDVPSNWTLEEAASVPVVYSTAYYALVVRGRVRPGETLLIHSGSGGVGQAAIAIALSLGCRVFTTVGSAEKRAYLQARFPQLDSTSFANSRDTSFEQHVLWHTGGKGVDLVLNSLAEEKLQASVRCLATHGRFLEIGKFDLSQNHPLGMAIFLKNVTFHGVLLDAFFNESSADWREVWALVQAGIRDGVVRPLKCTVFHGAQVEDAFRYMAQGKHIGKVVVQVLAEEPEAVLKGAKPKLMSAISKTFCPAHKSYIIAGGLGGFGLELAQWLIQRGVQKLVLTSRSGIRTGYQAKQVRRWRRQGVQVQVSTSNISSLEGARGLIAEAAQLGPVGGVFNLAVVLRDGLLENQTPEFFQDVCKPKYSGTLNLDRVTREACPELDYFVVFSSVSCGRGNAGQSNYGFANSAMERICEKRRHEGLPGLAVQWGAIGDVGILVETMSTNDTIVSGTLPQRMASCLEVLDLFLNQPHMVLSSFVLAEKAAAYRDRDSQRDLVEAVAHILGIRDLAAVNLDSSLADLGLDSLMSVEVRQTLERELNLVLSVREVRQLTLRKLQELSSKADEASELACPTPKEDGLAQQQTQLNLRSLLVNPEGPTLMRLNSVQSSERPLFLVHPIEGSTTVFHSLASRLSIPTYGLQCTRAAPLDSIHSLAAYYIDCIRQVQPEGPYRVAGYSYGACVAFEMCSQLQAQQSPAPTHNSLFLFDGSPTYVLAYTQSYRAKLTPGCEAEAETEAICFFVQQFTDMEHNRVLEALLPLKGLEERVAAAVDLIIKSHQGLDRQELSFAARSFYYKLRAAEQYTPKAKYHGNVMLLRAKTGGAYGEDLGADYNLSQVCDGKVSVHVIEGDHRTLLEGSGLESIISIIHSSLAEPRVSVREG
In short: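 Compounds at 0.01–30 μM were mixed with 300 ng purified full-length enzyme in 100 mM KH2PO4 pH 7.5, 1 mM DTT. Substrates ³H-acetyl-CoA and malonyl-CoA were then converted, and bead addition stopped the reaction. Signal was normalised to low and high plate controls and fitted by 4-parameter nonlinear regression.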

A2780 ovarian cells [2] = assay: A2780 ovarian cell proliferation assay in lipid reduced medium, with palmitate (MTT); type: cell-based; conditions: Homo sapiens, A2780, 96 h; read-out: pIC50 A2780 Ovarian Cell, With Palmitate (converted)
In short: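 Seeded cells were switched next day to lipid-reduced serum, exposed to compound and 25 μM palmitate complexed with fatty-acid-free BSA, and incubated 96 h. Proliferation was then determined by MTT absorbance at 544 nm, with a best-fit curve of signal against concentration.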

A2780 ovarian cells [3] = assay: A2780 ovarian cell proliferation assay in lipid reduced medium, without palmitate (MTT); type: cell-based; conditions: Homo sapiens, A2780, 96 h; read-out: pIC50 A2780 Ovarian Cell, Without Palmitate (converted)
[4] = system: LNCaP-Vancouver prostate cells; assay: In vitro LNCaP Vancouver prostate cell proliferation assay in lipid reduced medium; type: cell-based; conditions: read-out: pIC50 LNCaP_Vancouver prostate cell (converted)
Description: LNCaP-Vancouver prostate cells were obtained from the Vancouver Prostate Cancer Centre. Cells were maintained in RPMI-1640, 10% Fetal Calf Serum (FCS, Hyclone), 2 mM glutamine and 50 μg/ml Gentamicin.
For the proliferation experiment 1500 LNCaP-Vancouver cells per well were seeded in a 384-well black with clear bottom plate (costar 3712BC) in 40 μl RPMI-1640, 10% Lipid reduced serum (LRS, Hyclone), 50 μg/ml Gentamicin and 2 mM Glutamine and incubated at 37° C., 5% CO2. The next day 10 μl of test compound/DMSO diluted in medium was added (3E-5M, 1E-5M, 3E-6M, 1E-6M, 3E-7M, 1E-7M, 3E-8M, 1E-8M final concentration). Compounds were tested in duplicate. After 96 h incubation at 37° C., 5% CO2 25 μl ATP-glow mix was added. The plate was incubated for 30 min at 37° C. and luminescence was measured with the Envision.
Analysis: Determination of pIC50 Values
pIC50 values were calculated as follows.
where mLC and mHC are the means of the low control wells and high control wells on the plate, after manual exclusion of outliers. The relation between the % Controlmin values and concentration was fitted to a 4-parameter logistic curve using a non-linear least squares regression method to determine the pIC50 value. Outlying data points were excluded manually to get a correct fit. The pIC50 corresponds to −log 10(IC50), if the IC50 is expressed in molar units (http://www.ncbi.nlm.nih.gov/books/NBK91994). The IC50 parameter was always determined by non-linear regression, but one or more of the other parameters may have been held fixed on a relevant input value, such as 0 for the bottom values.
For dose response curves with FASN inhibitors in LNCaP-Vancouver or PC-3M-Luc-C6 cells the curves bottom out around 30 to 40% of the control value. A standard fit PL2, forcing the lower bound to this level was used.
Representative compounds of the present invention were tested according to the procedure as described in Biological Example 4a and 4b above, with results as listed in Table 9, below.

[5] = molecular target: Fatty Acid Synthase Keto-reductase Domain (FASN KR) (Homo sapiens, UniProt P49327); assay: Fatty Acid Synthase keto-reductase domain (FASN KR) inhibition, NADPH oxidation at 340 nm
Sequence of Fatty Acid Synthase Keto-reductase Domain (FASN KR) (P49327 whole entry, the tested form may be a part): as the sequence (P49327 whole entry) above
Description: After 20 minutes incubation at room temperature the plate was measured again (T2).
The decrease in absorbance was calculated as (Absorbance before incubation T1)−(Absorbance following incubation T2).
A plot of Controlmin versus test compound concentration was fitted to a 4-parameter logistic curve using a non-linear least squares regression method.

Structure (SMILES) | inhibition at 10 µM [1] [%] | IC50 [1] [nM] | IC50 (A2780 ovarian cells [2]) [nM] | IC50 (A2780 ovarian cells [3]) [nM] | IC50 [4] [nM] | IC50 [5] [nM]
O=C(C1CC1)N1CC[C@@H](CN2C(=O)C3(CC3)N=C2c2ccc(-c3ccc4occc4c3)c(F)c2)C1 [compound 232, (R)-5-(4-(benzofuran-5-yl)-3-fluorophenyl)-6-((1-(cyclopropanecarbonyl)pyrrolidin-3-yl)methyl)-4,6-diazaspiro[2.4]hept-4-en-7-one] | 105 | 83.2 | > 6170 | 2400 | 1820 | 324
O=C(C1CC1)N1CC[C@@H](CN2C(=O)C3(CC3)N=C2c2ccc(-c3ccc4cc(F)ccc4c3)cc2)C1 [compound 311, (R)-6-((1-(cyclopropanecarbonyl)pyrrolidin-3-yl)methyl)-5-(4-(6-fluoronaphthalen-2-yl)phenyl)-4,6-diazaspiro[2.4]hept-4-en-7-one] |  |  | > 10000 | ~229 | 302 | 
Cc1ccc2cc(-c3ccc(C4=NC5(CC5)C(=O)N4CC4CN(C(=O)C5CC5)C4)cc3)ccc2n1 [compound 510, 6-{[1-(Cyclopropylcarbonyl)azetidin-3-yl]methyl}-5-[4-(2-methylquinolin-6-yl)phenyl]-4,6-diazaspiro[2.4]hept-4-en-7-one] | 80 | 955 |  |  | 4790 | 5370
O=C([C@H]1CCCO1)N1CC[C@@H](CN2C(=O)C3(CCOCC3)N=C2c2ccc(-c3ccc4occc4c3)cc2)C1 [compound 669, 2-[4-(1-Benzofuran-5-yl)phenyl]-3-({(3R)-1-[(2R)-tetrahydro-furan-2-ylcarbonyl]pyrrolidin-3-yl}methyl)-8-oxa-1,3-diazaspiro[4.5]dec-1-en-4-one] |  |  |  |  | 2820 | 
Cn1ncc2cc(-c3ccc(C4=NC5(CCOCC5)C(=O)N4C[C@@H]4CCN(C(=O)C5CC5)C4)cc3)ccc21 [compound 672, 3-{[(3R)-1-(Cyclopropylcarbonyl)pyrrolidin-3-yl]methyl}-2-[4-(1-methyl-1H-indazol-5-yl)phenyl]-8-oxa-1,3-diazaspiro[4.5]dec-1-en-4-one] |  |  | > 10000 | ~407 | 2630 | 
O=C(C1CC1)N1CC[C@@H](CN2C(=O)C3(CCOC3)N=C2c2ccc(-c3ccc4occc4c3)cc2)C1 (stereo partly drawn) [compound 686, 2-[4-(1-Benzofuran-5-yl)phenyl]-3-{[(3R)-1-(cyclopropylcarbonyl)pyrrolidin-3-yl]methyl}-7-oxa-1,3-diazaspiro[4.4]non-1-en-4-one] | 98 | 182 |  |  | 3800 | 676
Cn1ncc2cc(-c3ccc(C4=NC5(CCOC5)C(=O)N4C[C@@H]4CCN(C(=O)C5CC5)C4)cc3)ccc21 (stereo partly drawn) [compound 690, 3-{[(3R)-1-(Cyclopropylcarbonyl)pyrrolidin-3-yl]methyl}-2-[4-(1-methyl-1H-indazol-5-yl)phenyl]-7-oxa-1,3-diazaspiro[4.4]non-1-en-4-one] |  |  | > 10000 | 708 | 2340 | 
COC(=O)N1CC2(C1)N=C(c1ccc(-c3ccc(-c4cnn(C)c4)cc3)cc1)N(C[C@@H]1CCN(C(=O)C3CC3)C1)C2=O [compound 725, Methyl 7-{[(3R)-1-(cyclopropylcarbonyl)pyrrolidin-3-yl]methyl}-6-[4′-(1-methyl-1H-pyrazol-4-yl)biphenyl-4-yl]-8-oxo-2,5,7-triazaspiro[3.4]oct-5-ene-2-carboxylate] | 93 | 245 |  |  | 1660 | 646
Cc1cc(-c2ccc3c(c2)OCO3)ccc1C1=NC2(CCCC2)C(=O)N1C[C@@H]1CCN(C(=O)C2CC2)C1 [compound 883, (R)-2-(4-(benzo[d][1,3]dioxol-5-yl)-2-methylphenyl)-3-((1-(cyclopropanecarbonyl)pyrrolidin-3-yl)methyl)-1,3-diazaspiro[4.4]non-1-en-4-one] | 100 | 269 | > 10000 | ~2450 |  | 1050

More lines, now with the values ahead:

inhibition at 10 µM [1] [%] | IC50 [1] [nM] | IC50 (A2780 ovarian cells [2]) [nM] | IC50 (A2780 ovarian cells [3]) [nM] | IC50 [4] [nM] | IC50 [5] [nM] | Structure (SMILES)
99 | 91.2 | > 10000 | 339 | 1070 | 263 | O=C(C1CC1)N1CC[C@@H](CN2C(=O)C3(CC3)N=C2c2ccc(-c3ccc4cnc(F)cc4c3)cc2)C1 [compound 220, (R)-6-((1-(cyclopropanecarbonyl)pyrrolidin-3-yl)methyl)-5-(4-(3-fluoroisoquinolin-6-yl)phenyl)-4,6-diazaspiro[2.4]hept-4-en-7-one]
107 | 40.7 | > 10000 | 550 | 1230 | 105 | Cc1cc(C2=NC3(CC3)C(=O)N2C[C@@H]2CCN(C(=O)C3CC3)C2)ccc1-c1ccc2sccc2c1 [compound 230, (R)-5-(4-(benzo[b]thiophen-5-yl)-3-methylphenyl)-6-((1-(cyclopropanecarbonyl)pyrrolidin-3-yl)methyl)-4,6-diazaspiro[2.4]hept-4-en-7-one]
99 | 69.2 | > 10000 | 513 | 479 | 148 | O=C(C1CC1)N1CC[C@@H](CN2C(=O)C3(CC3)N=C2c2ccc(-c3ccc4ncccc4c3)cc2F)C1 [compound 248, (R)-6-((1-(cyclopropanecarbonyl)pyrrolidin-3-yl)methyl)-5-(2-fluoro-4-(quinolin-6-yl)phenyl)-4,6-diazaspiro[2.4]hept-4-en-7-one]
98 | 79.4 |  |  | 339 | 224 | O=C(C1CC1)N1CC[C@@H](CN2C(=O)C3(CCOC3)N=C2c2ccc(-c3ccc4cccnc4c3)cc2)C1 (stereo partly drawn) [compound 680, 3-{[(3R)-1-(Cyclopropylcarbonyl)pyrrolidin-3-yl]methyl}-2-(4-quinolin-7-ylphenyl)-7-oxa-1,3-diazaspiro[4.4]non-1-en-4-one]
106 | 20 | > 10000 | 11 |  | 25.1 | O=C(C1CC1)N1CC[C@@H](CN2C(=O)C3(CCCC3)N=C2c2ccc(-c3ccc4[nH]ccc4c3)cc2F)C1 [compound 845, (R)-3-((1-(cyclopropanecarbonyl)pyrrolidin-3-yl)methyl)-2-(2-fluoro-4-(1H-dinol-5-yl)phenyl)-1,3-diazaspiro[4.4]non-1-en-4-one]
108 | 25.1 | > 10000 | 20.9 |  | 40.7 | O=C(C1CC1)N1CC[C@@H](CN2C(=O)C3(CCCC3)N=C2c2ccc(-c3ccc4cc[nH]c4c3)cc2F)C1 [compound 874, (R)-3-((1-(cyclopropanecarbonyl)pyrrolidin-3-yl)methyl)-2-(2-fluoro-4-(1H-indol-6-yl)phenyl)-1,3-diazaspiro[4.4]non-1-en-4-one]
113 | 36.3 | > 10000 | ~93.3 |  | 60.3 | O=C(N1CC[C@@H](CN2C(=O)C3(CCCC3)N=C2c2ccc(-c3ccc4occc4c3)cc2)C1)C1(O)CC1 [compound 878, (R)-2-(4-(benzofuran-5-yl)phenyl)-3-((1-(1-hydroxycyclopropanecarbonyl)pyrrolidin-3-yl)methyl)-1,3-diazaspiro[4.4]non-1-en-4-one]
107 | 135 | > 10000 | ~89.1 |  | 295 | Cc1nnc(-c2ccc(-c3ccc(C4=NC5(CCCC5)C(=O)N4C[C@@H]4CCN(C(=O)C5CC5)C4)c(C)c3)cc2)o1 [compound 882, (R)-3-((1-(cyclopropanecarbonyl)pyrrolidin-3-yl)methyl)-2-(3-methyl-4′-(5-methyl-1,3,4-oxadiazol-2-yl)-[1,1′-biphenyl]-4-yl)-1,3-diazaspiro[4.4]non-1-en-4-one]
